# Reference: patent US20210046010A1, “TABLETS CONTAINING ARGININE AT HIGH CONCENTRATION” (KYOWA HAKKO BIO CO., LTD., priority 2015, published 2021)
# What was measured:
# [1] = Moisture content of powder by heating and drying method moisture analyzer; format: physicochemical; conditions: heating and drying method moisture analyzer MX-50
# Method: (§1) 600 g of L-arginine was added to 5 L of water, and the mixture was mixed, and spray dried by a spray dryer [L-8i type spray dryer (manufactured by OHKAWARA KAKOHKI CO., LTD.)] set to the conditions of atomizer rotation number=35,000 rpm, inlet temperature=180° C. and outlet temperature=70° C. to give a powder. The moisture content of the aforementioned powder was measured by a heating and drying method moisture analyzer [heating and drying method moisture analyzer MX-50 (manufactured by A&D Company, Limited)] to find 1.96 mass % The moisture content was 2.3 mass % when measured by the Karl Fischer's method at the General Incorporated Foundations Japan Food Research Laboratories. Hereinafter this powder is indicated to as “SD arginine-A”.
# [2] = Moisture content of powder by Karl Fischer's method; format: physicochemical; conditions: Japan Food Research Laboratories
# Method: as §1
SMILES,moisture content [1] [mass %],moisture content [2] [mass %]
"N=C(N)NCCC[C@H](N)C(=O)O [SD arginine-C, L-arginine]",3.80,3.91
"N=C(N)NCCC[C@H](N)C(=O)O [SD arginine-B, L-arginine]",1.81,–
"N=C(N)NCCC[C@H](N)C(=O)O [SD arginine-A, L-arginine]",1.96,2.3
